According to article PMC7937321 (Genes and Environment, 2021):
Read-outs that look alike come from different tables or passages of the source.

Experiments:
[1] = tested on: rodent; details: rodent; ref [20]-[41], Table 2; cited from earlier work
[2] = tested on: TA1538, TA100, TA98, TA97, TA1535; details: cited from earlier work
[3] = tested on: rodent; details: chromosomal Aberration test, micronucleus test, transgenic rodent gene mutation assay; ref [48], [58]–[63]; cited from earlier work
[4] = tested on: human lymphoblastoid TK6 cells, thymidine kinase gene; assay: TK gene mutation assay (TK6 assay, OECD TG490)
Experimental: (§1) In principle, this collaborative study conducted the treatment of test substances, the dose finding, and the main test of TK6 assays, according to the OECD Guideline TG490 [17]. […] Briefly, test substances were dissolved in an appropriate solvent (DMSO or ethanol) and then serially diluted to prepare final concentrations. […] The 4 h and 24 h treatments were conducted by shaking and static exposures, respectively. After treatment with test substances, cells were centrifuged (1000 rpm, 5 min), supernatants were removed, and cells were washed with a serum-free medium or Hank’s Balanced Salt Solution. After centrifugation (1000 rpm, 5 min) to remove the supernatant, cells (2 × 10^7 cells) were dispersed in an RPMI medium containing 10% serum, and cell concentration was measured. Treated cells were cultured at 37 °C with 5% CO2 condition and used for TK6 assays. At that time, to calculate the cloning efficiency (CE) (Eq. 1), the cells were cultured in a 96-well microplate at a concentration of about 1.6 cells/well for 2 weeks.
(§2) The TK6 assay is conducted between 20 and 10% RS0 as a maximum dose if cytotoxicity is observed. If no precipitate or limiting cytotoxicity was observed, the maximum dose was the lowest concentration among 10 mM, 2 mg/mL, or 2 μL/mL of the test substance. When the main TK6 assay was difficult to conduct under the condition of RS0 values from 20 to 10%, the test was conducted between 20 and 10% relative total growth (RTG), described later, as a maximum dose.
(§3) On the third day of culture, CE3 plates for determining plating efficiency and mutant frequency (MF) plates for mutation detection were prepared. CE3 plates were seeded in 96-well microplates at a concentration of about 1.6 cells/well. The MF plates were seeded in 96-well microplates at 40,000 cells/well in the presence of 3 μg/mL of trifluorothymidine (Sigma Aldrich).
(§4) Mutant colonies in MF plates were calculated using Eq. 7 using the Poisson distribution. EW was the number of wells without colonies, and TW was the total number of wells. N was the average number of cells per well (N = 40,000 in this study). The data were statistically analyzed by Omori’s method, a modified Dunnett’s procedure for identifying clear negatives, a Simpson–Margolin procedure for detecting downturn data, and a trend test to evaluate the dose dependency [42, 43]. The acceptability criterion for the test was that the MF value of the positive control group of each laboratory was increased with statistical significance compared with that of the concurrent negative control group.

[5] = tested on: human lymphoblastoid TK6 cells, thymidine kinase gene
Experimental: as §1, §2, §3, §4

[6] = tested on: TK6 cells; details: human
[7] = tested on: L5178Y mouse lymphoma cells; details: cited from earlier work

O=[N+]([O-])c1cccc2ccccc12 [1-Nitronaphthalene]
Carcinogenicity Studies [1]: Neg
The Highest Specific Activity and the Strain ([2]; TA100 with S9, ref Table 2): 12,500 revertants/mg
The Highest Specific Activity and the Strain ([2]; TA100 without S9, ref Table 2): 14,700 revertants/mg
specific activity values obtained from Ames test ([2]; ref Table 2): exceeding 10,000 revertants per milligram
Bacterial reverse mutation assay, With S9 ([2]; with S9, ref [18]-[40], Table 2): Pos
Bacterial reverse mutation assay, Without S9 ([2]; without S9, ref [18]-[40], Table 2): Pos
in vivo genotoxicity tests [3]: negative
TK6 assay result (mutant frequency increase, judgment) ([4]; 4h treatment (+S9)): significant increase in MF
TK6 assay result (mutant frequency increase, judgment) ([4]; 4h treatment (-S9)): significant increase in MF
TK6 assay overall judgment ([4]; all treatments): positive
TK mutation assay, With S9 ([4]; short-term 4 h, with rat liver S9): Pos
TK mutation assay, Without S9 ([4]; short-term 4 h, without S9): Pos

Cc1cc(N)ccc1N [2,5-Diaminotoluene]
TK6 assay overall judgment [5]: negative
TK mutation assay, Long term [5]: Neg
TK mutation assay, With S9 [5]: Neg
TK mutation assay, Without S9 [5]: Neg
CE3 (cell viability on Day 3) [6]: 92.1%
cytotoxicity [6]: About 80%
Carcinogenicity Studies [1]: Neg
MLA result ([7]; NTP database, ref [54]): positive
MLA result ([7]; reported by SCCS, ref [46]): negative
MLA (TK gene locus), With S9 ([7]; with S9, ref [27], [46]-[53], Table 3): Inconclusive^c
MLA (TK gene locus), Without S9 ([7]; without S9, ref [27], [46]-[53], Table 3): Inconclusive^c
